According to ChEMBL document CHEMBL3045319, “Synthesis, antitumor activity, and structureactivity relationship of some 4H-pyrano[3,2-h]quinoline and 7H-pyrimido[4,5:6,5]pyrano[3,2-h]quinoline derivatives” (Med Chem Res, 2013):
Converted amounts (≈) assume the structure as drawn.

What was measured:
[1] = system: HepG2; assay: Cytotoxicity against Homo sapiens (human) HepG2 cells assessed as cell viability at 12.5 ug/ml after 48 hr by MTT assay relative to control; type: functional; settings: HepG2, 48 h, read-out: Activity
[2] = system: HepG2; assay: Cytotoxicity against Homo sapiens (human) HepG2 cells assessed as cell viability at 50 ug/ml after 48 hr by MTT assay relative to control; type: functional; settings: HepG2, 48 h, read-out: Activity
[3] = system: MCF7; assay: Cytotoxicity against Homo sapiens (human) MCF7 cells assessed as cell viability at 3.125 ug/ml after 48 hr by MTT assay relative to control; type: functional; settings: MCF7, 48 h, read-out: Activity
[4] = system: HepG2; assay: Cytotoxicity against Homo sapiens (human) HepG2 cells assessed as cell viability at 3.125 ug/ml after 48 hr by MTT assay relative to control; type: functional; settings: HepG2, 48 h, read-out: Activity
[5] = system: MCF7; assay: Cytotoxicity against Homo sapiens (human) MCF7 cells after 48 hr by MTT assay; type: functional, cell-based; settings: MCF7, 48 h
[6] = system: MCF7; assay: Cytotoxicity against Homo sapiens (human) MCF7 cells assessed as cell viability at 12.5 ug/ml after 48 hr by MTT assay relative to control; type: functional; settings: MCF7, 48 h, read-out: Activity
[7] = Cytotoxicity against Homo sapiens (human) HCT cells assessed as cell viability at 1.56 ug/ml after 48 hr by MTT assay relative to control; type: functional; settings: read-out: Activity
[8] = system: HepG2; assay: Cytotoxicity against Homo sapiens (human) HepG2 cells after 48 hr by MTT assay; type: functional, cell-based; settings: Homo sapiens, HepG2, 48 h; read-out: IC50
[9] = system: MCF7; assay: Cytotoxicity against Homo sapiens (human) MCF7 cells assessed as cell viability at 25 ug/ml after 48 hr by MTT assay relative to control; type: functional; settings: MCF7, 48 h, read-out: Activity
[10] = system: HepG2; assay: Cytotoxicity against Homo sapiens (human) HepG2 cells assessed as cell viability at 6.25 ug/ml after 48 hr by MTT assay relative to control; type: functional; settings: HepG2, 48 h, read-out: Activity
[11] = system: MCF7; assay: Cytotoxicity against Homo sapiens (human) MCF7 cells assessed as cell viability at 50 ug/ml after 48 hr by MTT assay relative to control; type: functional; settings: MCF7, 48 h, read-out: Activity
[12] = system: HepG2; assay: Cytotoxicity against Homo sapiens (human) HepG2 cells assessed as cell viability at 1.56 ug/ml after 48 hr by MTT assay relative to control; type: functional; settings: HepG2, 48 h, read-out: Activity
[13] = system: MCF7; assay: Cytotoxicity against Homo sapiens (human) MCF7 cells assessed as cell viability at 6.25 ug/ml after 48 hr by MTT assay relative to control; type: functional; settings: MCF7, 48 h, read-out: Activity
[14] = system: HepG2; assay: Cytotoxicity against Homo sapiens (human) HepG2 cells assessed as cell viability at 25 ug/ml after 48 hr by MTT assay relative to control; type: functional; settings: HepG2, 48 h, read-out: Activity
[15] = Cytotoxicity against Homo sapiens (human) HCT cells assessed as cell viability at 50 ug/ml after 48 hr by MTT assay relative to control; type: functional; settings: read-out: Activity
[16] = Cytotoxicity against Homo sapiens (human) HCT cells assessed as cell viability at 12.5 ug/ml after 48 hr by MTT assay relative to control; type: functional; settings: read-out: Activity
[17] = Cytotoxicity against Homo sapiens (human) HCT cells assessed as cell viability at 6.25 ug/ml after 48 hr by MTT assay relative to control; type: functional; settings: read-out: Activity
[18] = Cytotoxicity against Homo sapiens (human) HCT cells assessed as cell viability at 3.125 ug/ml after 48 hr by MTT assay relative to control; type: functional; settings: read-out: Activity
[19] = system: MCF7; assay: Cytotoxicity against Homo sapiens (human) MCF7 cells assessed as cell viability at 1.56 ug/ml after 48 hr by MTT assay relative to control; type: functional; settings: MCF7, 48 h, read-out: Activity
[20] = Cytotoxicity against Homo sapiens (human) HCT cells assessed as cell viability at 25 ug/ml after 48 hr by MTT assay relative to control; type: functional; settings: read-out: Activity
[21] = Cytotoxicity against Homo sapiens (human) HCT cells after 48 hr by MTT assay; type: functional, cell-based

Row | SMILES | viability at 12.5 µg/mL [1] [%] | viability at 50 µg/mL [2] [%] | viability at 3.125 µg/mL [3] [%] | viability at 3.125 µg/mL [4] [%] | IC50 [5] [µg/mL] | viability at 12.5 µg/mL [6] [%] | viability at 1.56 µg/mL [7] [%] | viability at 25 µg/mL [9] [%] | viability at 6.25 µg/mL [10] [%] | viability at 50 µg/mL [11] [%] | viability at 1.56 µg/mL [12] [%] | viability at 6.25 µg/mL [13] [%] | viability at 25 µg/mL [14] [%] | viability at 50 µg/mL [15] [%] | viability at 12.5 µg/mL [16] [%] | viability at 6.25 µg/mL [17] [%] | viability at 3.125 µg/mL [18] [%] | viability at 1.56 µg/mL [19] [%] | viability at 25 µg/mL [20] [%] | IC50 [21] [µg/mL] | further results
1 | N#CC1=C(/N=C/NN)Oc2c(ccc3cccnc23)C1c1ccc(Cl)cc1 (centres undefined) | 36 | 24.9 | 67 | 78.4 | 8.4 (≈ 22.4 µM) | 45 | 81.4 | 35.2 | 60.9 | 21.4 | 88.2 | 55 | 29.1 | 24.8 | 36 | 55.6 | 65.2 | 78.8 | 29.2 | 7.4 (≈ 19.7 µM) | IC50 [8]: 8.7 µg/mL (≈ 23.1 µM)
2 | CN/C=N/C1=C(C#N)C(c2ccc(Cl)cc2)c2ccc3cccnc3c2O1 (centres undefined) | 30.4 | 9.28 | 65 | 45.7 | 6.3 (≈ 16.8 µM) | 29.2 | 58.2 | 21.4 | 39 | 16.8 | 52.8 | 50.1 | 17.9 | 11.1 | 22.2 | 29.4 | 41.4 | 76.8 | 13.6 | 2.3 (≈ 6.14 µM) | IC50 [8]: 1.9 µg/mL (≈ 5.07 µM)
3 | N#CC1=C(/N=C/N)Oc2c(ccc3cccnc23)C1c1ccc(Cl)cc1 (centres undefined) | 63.9 | 35.8 | 79.7 | 87.4 | 10.5 (≈ 29.1 µM) | 43.6 | 94.9 | 37.5 | 76.7 | 23.1 | 96.6 | 67.4 | 43.4 | 18.7 | 26.3 | 52.4 | 80.2 | 91.3 | 21.8 | 6.8 (≈ 18.8 µM) | IC50 [8]: 23.6 µg/mL (≈ 65.4 µM)
4 | Cc1ccc2ccc3c(c2n1)OC(/N=C/N)=C(C#N)C3c1ccc(Cl)cc1 (centres undefined) | 57.7 | 41.2 | 96.5 | 76.7 | > 50 | 81.5 | 91.6 | 74.2 | 68 | 63.6 | 80.5 | 89.3 | 53.8 | 35.9 | 65.2 | 70.7 | 82.2 | 98.4 | 44.2 | 21.7 (≈ 57.9 µM) | IC50 [8]: 32.9 µg/mL (≈ 87.8 µM)
5 | Cc1ccc2ccc3c(c2n1)OC(/N=C/N)=C(C#N)C3c1ccc(Br)cc1 (centres undefined) | 65.5 | 52.3 | 97.3 | 89.3 | > 50 | 81.2 | 86.9 | 69.6 | 81.2 | 56.2 | 98.8 | 89.8 | 60.7 | 24.8 | 42.9 | 49.8 | 65 | 100 | 34.1 | 6.2 (≈ 14.8 µM) | IC50 [8]: > 50 µg/mL
6 | CCO/C=N/C1=C(C#N)C(c2ccc(Cl)cc2)c2ccc3cccnc3c2O1 (centres undefined) | 72.3 | 39.4 | 93 | 91 | 45.4 (≈ 116 µM) | 74.2 | 93.4 | 67.1 | 86.6 | 43 | 97.6 | 81.4 | 57.1 | 23.9 | 67.1 | 73.3 | 81.7 | 98.3 | 51.4 | 25.7 (≈ 65.9 µM) | IC50 [8]: 31.1 µg/mL (≈ 79.8 µM)
7 | CCO/C=N/C1=C(C#N)C(c2ccc(Cl)cc2)c2ccc3ccc(C)nc3c2O1 (centres undefined) | 79.4 | 45.2 | 87.4 | 96.4 | 23.8 (≈ 58.9 µM) | 63.4 | 75.5 | 48.6 | 85.1 | 37.5 | 100 | 76.6 | 69 | 15.2 | 26 | 35.3 | 54.9 | 96.1 | 18.4 | 3.6 (≈ 8.91 µM) | IC50 [8]: 44.5 µg/mL (≈ 110 µM)
8 | CCO/C=N/C1=C(C#N)C(c2ccc(Br)cc2)c2ccc3ccc(C)nc3c2O1 (centres undefined) | 76.4 | 34.6 | 95.4 | 94.6 | > 50 | 79.2 | 81.9 | 67.4 | 83.3 | 56.6 | 100 | 87.6 | 62.9 | 19.8 | 34 | 46.5 | 62.9 | 98.1 | 23.3 | 5.8 (≈ 12.9 µM) | IC50 [8]: 37.1 µg/mL (≈ 82.8 µM)
9 | CN(C)/C=N/C1=C(C#N)C(c2ccc(Cl)cc2)c2ccc3cccnc3c2O1 (centres undefined) | 85.6 | 48.1 | 92 | 98.3 | 29.3 (≈ 75.3 µM) | 75.6 | 100 | 58 | 93 | 37.7 | 100 | 83.5 | 77.8 | 49.5 | 77.7 | 88.1 | 98.5 | 98.7 | 71.3 | 49.4 (≈ 127 µM) | IC50 [8]: 47.9 µg/mL (≈ 123 µM)
10 | Cc1ccc2ccc3c(c2n1)OC(/N=C/N(C)C)=C(C#N)C3c1ccc(Cl)cc1 (centres undefined) | 94.7 | 68.2 | 87.2 | 100 | 24.4 (≈ 60.6 µM) | 68.2 | 82 | 49.6 | 97.8 | 35 | 100 | 76.9 | 81.5 | 30.5 | 69.7 | 74.2 | 78.7 | 97 | 53.5 | 28.2 (≈ 70 µM) | IC50 [8]: > 50 µg/mL
11 | CC[C@]1(O)C[C@@H]2CN(CCc3c([nH]c4ccccc34)[C@@](C(=O)OC)(c3cc4c(cc3OC)N(C)[C@H]3[C@@](O)(C(=O)OC)[C@H](OC(C)=O)[C@]5(CC)C=CCN6CC[C@]43[C@@H]65)C2)C1 [VINBLASTINE] | 24.2 | 14.4 | 60.4 | 55 | – | 29.6 | 53.4 | 15.2 | 45.1 | 7.82 | 72.1 | 48.8 | 16.1 | 16.3 | 28.2 | 38.1 | 47.5 | 76.2 | 21.7 | 2.6 (≈ 3.21 µM) | –
